From patent US7112562B2 (Diatos, S.A., priority 2001, dated 2006)

Test system: Caco-2 cell monolayers
Experiment: Trans-epithelial transport of D-[14C]-mannitol and L-[3H]-proline in presence of DPV
Assay type: cell-based
Settings: 30 μg/ml
Experimental: Trans-epithelial transport experiments were carried out.

SSRRARRSPRHLGSG (listed as Homo sapiens) [DPV10]
effect on amounts of D-[14C]-mannitol and L-[3H]-proline associated with the cells at the end of the experiment (Caco-2, 8 hours, FIG. 4): did not affect
effect on transport of D-[14C]-mannitol or L-[3H]-proline (Caco-2, FIG. 3): did not affect
